Test results: US6495588B2, “Scytonemin and methods of using thereof” (The Regents of the University of California, priority 2000, dated 2002)

Assays:
[1] = molecular target: T1, GST-CHK1 (Homo sapiens, UniProt O14757); assay: GST-Chk1 activity assay; type: biochemical; conditions: 10 μM cold ATP, GST-cdc25C substrate
T1 construct: made in house
T1 sequence (O14757 1-476): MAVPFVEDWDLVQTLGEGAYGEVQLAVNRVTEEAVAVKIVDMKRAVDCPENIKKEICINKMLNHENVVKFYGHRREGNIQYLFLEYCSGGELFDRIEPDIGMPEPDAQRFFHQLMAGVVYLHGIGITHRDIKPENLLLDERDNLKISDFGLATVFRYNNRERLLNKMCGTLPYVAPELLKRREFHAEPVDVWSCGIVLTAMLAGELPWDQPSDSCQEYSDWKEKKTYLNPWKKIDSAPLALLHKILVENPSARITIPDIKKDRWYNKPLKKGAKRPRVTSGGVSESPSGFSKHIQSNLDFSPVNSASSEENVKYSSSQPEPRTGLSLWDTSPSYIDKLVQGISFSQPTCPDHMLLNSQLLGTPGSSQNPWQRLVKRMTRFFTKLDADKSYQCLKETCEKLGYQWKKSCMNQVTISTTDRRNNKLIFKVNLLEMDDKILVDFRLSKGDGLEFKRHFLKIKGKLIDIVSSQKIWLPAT
Procedure: To determine the effect of SCY on GST-Chk1 activity, the following assay was conducted. GST-Chk1 were expressed and purified using a method previously described in Jackson et al. (2000) Can. Res. 60:566-572, which is herein incorporated by reference. GST-Chk1 was purified to […] purity as determined via SDS-PAGE analysis. The remaining 30% was attributed to free GST. Flashplates were coated with 1 μg GST-cdc25C and 100 μM ATP at 4° C. The plates were washed twice with PBS, then 0.5 μCi [^33P]-γATP, 10 μM cold ATP, and 2 μg GST-CHK1, were added to the wells in kinase reaction buffer comprising 20 mM HEPES (pH 7.4), 50 mM KCl, 10 mM MgCl2, 1 mM EGTA, and 0.5 mM DTT. Activity was measured in the presence of scytonemin (SCY) in 100% DMSO yielding a 4% DMSO final concentration. Reactions were initiated by the addition of the enzyme, incubated at 37° C. for 30 minutes, and stopped by washing the plates five times with PBS. The amount of [^33P]-γATP incorporation was measured on a Packard Top-count.

[2] = system: Jurkat T cells; assay: Apoptosis assay (TUNEL, flow cytometry); type: cell-based; conditions: 3 μM, 24 hours
Procedure: To determine the mechanism behind the ability of SCY to inhibit cell proliferation, about 2×10^5 Jurkat T cells/ml were treated with vehicle (negative control), 3 μM SCY, or 3 μM camptothecin (positive control) a (0.1% DMSO[final]) and incubated at 37° C., 5% CO2 for 24 hours. As a positive control, camptothecin, a DNA topoisomerase inhibitor, was used because of its ability to arrest Jurkat cells at the G2/M phase of the cell cycle and induce the cells to undergo apoptosis. The cells were fixed in 1% paraformaldehyde, washed once with PBS, and stored in 70% EtOH at−20° C. Apoptosis was measured using the Promega Apoptosis Detection System (Promega, Madison, Wis.) an adapted TUNEL staining method.
The cells were washed two times with 5 ml PBS 2% FBS, then transferred to a microcentrifuge tube in 1 ml PBS, 0.2% Triton×100, 5 mg/ml BSA and incubated on ice for 5 minutes. Samples were spun, PBS solution removed, then resuspended in 80 μl equilibration buffer from Promega kit and incubated at room temperature for 10 minutes. Then the samples were spun and the equilibration buffer removed. A nucleotide mix comprising 45 μl equilibration buffer, 5 μl nucleotide mix, 1 μl Tdt enzyme per sample, was used to resuspend each sample in the dark. The cells were incubated in the dark at 37° C. for 1 hour. The reaction was terminated by the addition of 20 mM EDTA. The samples were washed twice with 1 ml RNAse A and a small aliquot, about 50 μl, was viewed under a microscope. Cells were stained with fluoroscein and then counterstained with propidium iodide and analyzed for DNA content and fragmentation using a Becton-Dickinson FacsSort (Becton-Dickinson, San Jose, Calif.).

[3] = system: LPS-stimulated monocytes; assay: Proinflammatory mediator production in LPS-stimulated monocytes; type: cell-based

For scytonemin, the IC50 [1] was about 1.4 µM, the “effect on cell cycle progression” value [2] was “did not have any cell cycle specific effect” and the “induction of apoptosis (DNA fragmentation)” value [2] was “cause the cells to undergo apoptosis in all phases of the cell cycle”. For the same substance, the IL-1β production [3] was “reduces”, the PGE2 production [3] was “reduces” and the TNFα production [3] was “reduces”.
